Experimental data: patent publication US20230241242A1, “PREPARATION METHOD FOR ANTIBODY MEDICAMENT CONJUGATE” (priority 2020, published 2023)

What was measured:
SK-BR-3 tumor cells = assay: Inhibition of in vitro proliferation of tumor cells by compounds (CTG, 6 days); format: cell-based; settings: Homo sapiens, SK-BR-3, 144 h, read-out: IC50 in inhibiting in vitro proliferation of SK-BR-3 cells
Protocol: (§1) This experiment was intended to detect the inhibitory activity of the pharmaceutical compounds of the present disclosure against the in vitro proliferation of U87MG cells (Cell Bank, Chinese Academy of Sciences, Catalog #TCHu138) and SK-BR-3 tumor cells (human breast cancer cells, ATCC, Cat #HTB-30). The cells were treated in vitro with a compound at different concentrations. After 6 days of culture, the proliferation of cells was tested using CTG (CellTiter-Glo® Luminescent Cell Viability Assay, Promega, Cat #G7573) reagents, and the in vitro activity of the compound was evaluated according to IC50 value.
(§2) The method for testing the inhibition of the in vitro proliferation of U87MG cells was described below as an example for the method for assaying for the inhibitory activity of the compounds of the present disclosure against the in vitro proliferation of tumor cells.
(§3) 1. Cell culture: U87MG and SK-BR-3 cells were cultured in EMEM medium (GE, Cat #SH30024.01) containing 10% FBS and McCoy's 5A medium (Gibco, Cat #16600-108) containing 10% FBS, respectively.
(§4) 2. Cell preparation: U87MG and SK-BR-3 cells growing at log phase were washed once with PBS (phosphate buffer, Shanghai BasalMedia Technologies Co., Ltd.) and then digested with 2-3 mL of trypsin (0.25% Trypsin-EDTA (1×), Gibico, Life Technologies) for 2-3 min After the cells were completely digested, 10-15 mL of cell culture media were added to elute the digested cells. The mixtures were centrifuged at 1000 rpm for 5 min, and the supernatants were discarded. Then the cells were resuspended in 10-20 mL of cell culture media to give single-cell suspensions.
(§5) 3. Cell plating: the U87MG and SK-BR-3 single-cell suspensions were each well mixed and adjusted with cell culture media to cell densities of 2.75×10^3 cells/mL and 8.25×10^3 cells/mL, respectively. The adjusted cell suspensions were each well mixed and added to 96-well cell culture plates at 180 μL/well. To each of the peripheral wells of the 96-well plates was added 200 μL of media only. The plate was incubated in an incubator for 24 h (37° C., 5% CO2).
(§6) 4. Compound preparation: the compound was dissolved in DMSO (dimethyl sulfoxide, Shanghai Titan Scientific Co., Ltd.) to prepare a stock solution at an initial concentration of 10 mM.
(§7) Small molecule compounds were prepared at an initial concentration of 500 nM as follows.
(§8) Different test samples at 100 μM (30 μL) were added to the first column of a 96-well U-bottom plate, and 20 μL of DMSO was added to each well of the second column through the eleventh column. […]
(§9) 7. Plate reading: the 96-well cell culture plate was taken out and tested in a microplate reader (BMG labtech, PHERAstar FS) for chemiluminescence.
(§10) Data were processed and analyzed using Microsoft Excel and Graphpad Prism 5.

U87MG cells = assay: as above; format: cell-based; settings: Homo sapiens, U-87 MG, 144 h, read-out: IC50 in inhibiting in vitro proliferation of U87 cells
Protocol: as §1, §2, §3, §4, §5, §6, §7, §8, §9, §10

[1] = tested on: human breast cancer cells trastuzumab drug-resistant strain (herceptin) JIMT-1 xenograft tumor; assay: Drug efficacy on JIMT-1 tumor-bearing mice; format: in vivo, nu/nu nude mice; settings: 10 mg/kg; two intraperitoneal injections; observation for 34 days
Protocol: The tumor volumes and body weights were measured twice a week and the results were recorded.
Tumor volume (V) was calculated as: V=½×Llong×Lshort^2

Molecule | IC50 (SK-BR-3 tumor cells) [nM] | IC50 (U87MG cells) [nM] | tumor inhibition rate [1]
CC[C@@]1(O)C(=O)OCc2c1cc1n(c2=O)Cc2c-1nc1cc(F)c(C)c3c1c2[C@@H](NC(=O)C1(O)CC1)CC3 [Compound 1, N-((1S,9S)-9-ethyl-5-fluoro-9-hydroxy-4-methyl-10,13-dioxo-2,3,9,10,13,15-hexahydro-1H,12H-benzo[de]pyrano[3′,4′:6,7]indolizino[1,2-b]quinolin-1-yl)-1-hydroxycyclopropane-1-carboxamide] | 0.12 | 0.23 | 
CC[C@@]1(O)C(=O)OCc2c1cc1n(c2=O)Cc2c-1nc1cc(F)c(C)c3c1c2[C@@H](NC(=O)C1(O)CCCC1)CC3 [Compound 4, N-((1S,9S)-9-ethyl-5-fluoro-9-hydroxy-4-methyl-10,13-dioxo-2,3,9,10,13,15-hexahydro-1H,12H-benzo[de]pyrano[3′,4′:6,7]indolizino[1,2-b]quinolin-1-yl)-1-hydroxycyclopentane-1-carboxamide] | 1.9 |  | 
CC[C@@]1(O)C(=O)OCc2c1cc1n(c2=O)Cc2c-1nc1cc(F)c(C)c3c1c2[C@@H](NC(=O)C1(CO)CC1)CC3 [Compound 5, N-((1S,9S)-9-ethyl-5-fluoro-9-hydroxy-4-methyl-10,13-dioxo-2,3,9,10,13,15-hexahydro-1H,12H-benzo[de]pyrano[3′,4′:6,7]indolizino[1,2-b]quinolin-1-yl)-1-(hydroxymethyl)cyclopropane-1-carboxamide] |  | 4.81 | 
T-DM1 |  |  | no inhibition effect on tumors
